Experimental data from EPA's ToxValDB 9.5.
Where “and” joins values, the source holds several entries; their conditions need not be identical. Equal values may be shown once.

System: Mus musculus
Details: oral
[1] = developmental, duration: 16 days, gavage, F, B6C3F1, generation: F1, F1: spleen: spleen B220+ cells + F1: spleen: Splenic NK cell activity
[2] = developmental, duration: 16 days, gavage, M, B6C3F1, generation: F1, F1: IgM antibody titer (SRBC) + F1: thymus: thymus CD3+ cells + F1: thymus: thymus CD4+ cells
[3] = developmental, duration: 16 days, gavage, M, B6C3F1, generation: F1, F1: spleen: Splenic NK cell activity
[4] = short-term, duration: 7 days, gavage, M, BALB/c, spleen: lymphocyte proliferation (ConA)
[5] = short-term, duration: 7 days, gavage, M, BALB/c, spleen: spleen CD3+ cells (cells normalized to control)
[6] = short-term, duration: 7 days, gavage, M, C57BL/6, serum corticosterone + spleen: IFN-gamma levels + spleen: IL-2 secreting splenocytes + spleen: spleen: relative weight + thymus: thymus: …
[7] = short-term, duration: 7 days, gavage, M, C57BL/6, serum corticosterone + spleen: lymphocyte proliferation (LPS) + spleen: spleen cellularity + spleen: spleen: relative weight + spleen: …
[8] = short-term, duration: 7 days, gavage, M, C57BL/6, spleen: apoptotic splenocytes + spleen: spleen - mitochondrial membrane Rh123 fluorescence + spleen: spleen - ROS-DCF fluorescence + spleen…
[9] = short-term, duration: 7 days, gavage, M, C57BL/6, spleen: splenic DN (CD4-CD8-) cells
[10] = short-term, duration: 7 days, gavage, M, C57BL/6, spleen: splenocytes - CAT activity + spleen: splenocytes - GST activity + splenic lymphocyte protein - bax + splenic lymphocyte protein - …
[11] = short-term, duration: 10 days, diet, M, 129/SV, spleen: spleen CD19+ cells + spleen: spleen CD4+ cells + spleen: spleen CD8+ cells + spleen: spleen cellularity + spleen: spleen Pan-NK+ …
[12] = short-term, duration: 10 days, diet, M, C57BL/6, bone marrow: bone marrow cellularity + bone marrow: bone marrow: no. of CD19+ B-lymphoid cells + bone marrow: bone marrow: no. of Gr1+CD11b…
[13] = short-term, duration: 10 days, diet, M, C57BL/6, spleen: spleen CD19+ cells + spleen: spleen CD4+ cells + spleen: spleen CD8+ cells + spleen: spleen cellularity + spleen: spleen NK1.1+ …
[14] = short-term, duration: 10 days, diet, M, spleen: spleen: absolute weight + thymus: thymus CD4+ cells + thymus: thymus CD8+ cells + thymus: thymus cellularity + thymus: thymus DP (…
[15] = short-term, duration: 12 days, gavage, M, C57BL/6, body mass after exposure + spleen: spleen CD8+ cells + spleen: spleen: relative weight + thymus: thymus: relative weight
[16] = short-term, duration: 12 days, gavage, M, C57BL/6, spleen: spleen CD4+ cells + spleen: spleen cellularity
[17] = short-term, duration: 14 days, gavage, F, BALB/c, spleen: spleen: relative weight + thymus: percentage of apoptotic cells in thymus + thymus: thymus: relative weight
[18] = short-term, duration: 14 days, gavage, M, BALB/c, spleen: lymphocyte proliferation (ConA)
[19] = short-term, duration: 14 days, gavage, M, BALB/c, spleen: spleen CD3+ cells + spleen: spleen CD3+CD4+ cells + spleen: spleen CD3+CD8+ cells
[20] = short-term, duration: 14 days, gavage, M, BALB/c, spleen: spleen: relative weight
[21] = short-term, duration: 21 days, gavage, F, B6C3F1, Survival rate (influenza A infection)

O=S(=O)(O)C(F)(F)C(F)(F)C(F)(F)C(F)(F)C(F)(F)C(F)(F)C(F)(F)C(F)(F)F [Perfluorooctanesulfonic acid]
10 mg/kg-day: LOEL [4] | NOEL (short-term, duration: 7 days, gavage, M, BALB/c, spleen: spleen CD3+ cells + spleen: spleen CD3+CD4+ cells + spleen: spleen CD3+CD4+ cells (cells normalized to control) + spleen: spleen CD3…) | NOEL (short-term, duration: 7 days, gavage, M, C57BL/6, spleen: spleen: relative weight + thymus: thymus: relative weight) | LOEL [10] | LOEL [15] | NOEL [16] | LOEL [18]
2.5 mg/kg-day: NOEL [5] | LOEL (short-term, duration: 14 days, gavage, M, BALB/c, spleen: spleen CD3+ cells (cells normalized to control) + spleen: spleen CD3+CD4+ cells (cells normalized to control) + spleen: spleen CD3+…) | NOEL [19]
7 mg/kg-day: LOEL (TAD) (short-term, duration: 21 days, gavage, F, B6C3F1, IgM antibody titer (TNP))
1 mg/kg-day: NOEL [1] | NOEL [2] | LOEL [3] | NOEL [8]
0.002%: NOEL [12]
5 mg/kg-day and 10 mg/kg-day: NOEL [20]
0.005%: NOEL [11] | LOEL (short-term, duration: 10 days, diet, M, C57BL/6, intrahepatic immune cells: TER119 (erythroid progenitor) + liver: IFN-gamma levels + liver: IL-4 levels + liver: TNF-alpha levels) | NOEL (short-term, duration: 10 days, diet, M, C57BL/6, intrahepatic immune cells: all leukocytes (CD45+) + intrahepatic immune cells: B cells (CD19+) + intrahepatic immune cells: CD138 (plasma …) | NOEL [13] | NOEL [14]
40 mg/kg-day: LOEL [9] | NOEL (short-term, duration: 7 days, gavage, M, C57BL/6, spleen: splenic DP (CD4+CD8+) cells)
4 ppm: NOEL (reproduction developmental, diet, M/F, BALB/c, generation: F1, F1: airway MCh sensitivity + F1: airway resistance (at 25 mg/mL methacholine) + F1: lung: BALF inflammatory cell counts: eosinophils + F1: …) | LOEL (reproduction developmental, diet, M/F, BALB/c, generation: F1, F1: airway MCh sensitivity + F1: lung: BALF inflammatory cell counts: macrophages + F1: lung: BALF inflammatory cell counts: total cell …)
0.1 mg/kg-day: NOEL [3]
0.005 mg/kg-day: NOEL [21]
0.004%: LOEL (short-term, duration: 10 days, diet, M, C57BL/6, liver: IFN-gamma levels + liver: IFN-gamma levels (+Con A) + liver: IL-4 levels + liver: IL-4 levels (+Con A) + liver: TNF-alpha levels + …)
20 mg/kg-day: NOEL (short-term, duration: 3 weeks, gavage, F, BALB/c, IgM antibody level (TNP 1:200) + IgM antibody level (TNP 1:50)) | LOEL (short-term, duration: 7 days, gavage, F, BALB/c, Peripheral blood phagocytosis (HEMA) + spleen: lymphocyte proliferation (ConA) + spleen: spleen cellularity + spleen: Splenic NK cell …) | NOEL (short-term, duration: 7 days, gavage, F, BALB/c, spleen: lymphocyte proliferation (LPS) + spleen: spleen CD4+ cells + spleen: spleen CD49b+ cells + spleen: spleen CD8+ cells + spleen: …) | LOEL [6] | LOEL [7] | NOEL (short-term, duration: 7 days, gavage, M, C57BL/6, spleen: IL-10 secreting splenocytes) | NOEL [9] | LOEL [16] | LOEL [17] | NOEL (short-term, duration: 14 days, gavage, M, BALB/c, spleen mRNA expression of IL-1Beta + thymus mRNA expression of IL-1Beta + thymus: percentage of apoptotic cells in thymus + thymus: thymus: …) | LOEL [20]
5 mg/kg-day: NOEL (developmental, duration: 16 days, gavage, F, B6C3F1, generation: F1, F1: body weight (4 weeks of age) + F1: body weight (8 weeks of age) + F1: IgM antibody titer (SRBC) + F1: spleen: spleen CD3+ cells + F1: …) | LOEL [1] | LOEL [2] | NOEL (developmental, duration: 16 days, gavage, M, B6C3F1, generation: F1, F1: body weight (4 weeks of age) + F1: body weight (8 weeks of age) + F1: spleen: spleen B220+ cells + F1: spleen: spleen CD3+ cells + F1: …) | NOEL [4] | LOEL [5] | LOEL (short-term, duration: 7 days, gavage, M, C57BL/6, IgM antibody-secreting cells (SRBC) + spleen: lymphocyte proliferation (ConA)) | NOEL [6] | NOEL [7] | LOEL (short-term, duration: 7 days, gavage, M, C57BL/6, spleen: IL-4 levels + Total serum IgG level + Total serum IgM level) | LOEL [8] | NOEL [10] | NOEL [15] | NOEL [17] | NOEL [18] | LOEL [19] | LOEL (short-term, duration: 14 days, gavage, M, BALB/c, thymus: percentage of apoptotic cells in thymus + thymus: thymus: relative weight)
0.02%: LOEL [11] | NOEL (short-term, duration: 10 days, diet, M, C57BL/6, blood serum: IL-6 levels (+LPS in vivo) + blood serum: TNF-alpha levels + blood serum: TNF-alpha levels (+LPS in vivo) + bone marrow: IL-6 …) | LOEL (short-term, duration: 10 days, diet, M, C57BL/6, blood serum: IL-6 levels + bone marrow: IL-6 levels (+ LPS in vitro) + bone marrow: IL-6 levels (+ LPS in vivo) + bone marrow: percent …) | LOEL [12] | NOEL (short-term, duration: 10 days, diet, M, C57BL/6, bone marrow: bone marrow: no. of early mature CD19+CD138-IgM+ B cells) | LOEL [13] | NOEL (short-term, duration: 10 days, diet, M, spleen: spleen CD19+ cells + spleen: spleen CD4+ cells + spleen: spleen CD8+ cells + spleen: spleen cellularity + spleen: spleen Pan-NK+ …) | LOEL [14]
0.025 mg/kg-day: LOEL [21] | NOEL (short-term, duration: 21 days, gavage, F, B6C3F1, body weight + body weight during influenza A infection (day 41, 20 days after infection) + spleen: spleen: relative weight + Survival time (…)
